According to patent US20260103473A1 (Avanc Pharmaceutical Co., Ltd., priority 2022, published 2026):
Counter-ions that a name gives are not always drawn.

Experiments:
Type in all cases: physicochemical
[1] = Test of solubility of salts of the compound of formula (I) in water; settings: room temperature, Table 10; for Solution state: after addition of water; for solubility: thermodynamic from solid, water, monocitrate vs dicitrate
Method: About 4-20 mg of salt of the compound of formula (I) was weighed, and the salt was added to the EP tube. A certain amount of solvent was added successively at room temperature. The solution was stirred, and it was observed whether the solid was completely dissolved. If the solid had not been completely dissolved after 10.0 mL of solvent was added, the experiment was stopped. The solubility of the compound in the solvent was estimated based on the volume of solvent used when the solid was completely dissolved.

[2] = Hygroscopicity of salts of the compound of formula (I) (weight gain at 95% humidity); settings: humidity 50% raised to 95% in increments of 15%, 60 min each
Method: The compound of formula (I) was placed in a humid environment, wherein the initial humidity of the environment was 50%, and the humidity was increased to 95% in increments of 15%. The maintenance time for each humidity gradient was 60 min. After the ambient humidity was maintained at 95% for 60 min, the weight gain of each salt form was tested to determine the hygroscopicity of the corresponding salt form.
According to the test procedures of Test Example 2, the solubility of the monocitrate salt and dicitrate salt of the compound of formula (I) were respectively tested.

[3] = Moisture absorption study of crystal forms by dynamic vapor sorption (DVS) with XRPD afterwards; settings: for weight increase at 80% RH during the adsorption process / weight increase at 95% RH: DVS, with reference to the mass at 50% RH; for XRPD pattern after DVS testing: after humidity cycle 50%-95%-50%
Method: Dynamic vapor sorption and desorption analysis of crystal forms were performed using DVS Intrinsic (SMS, UK) to evaluate the hygroscopicity of the crystal forms. The gradient mode was used for the test. The humidity change was 50%-95%-50%. The humidity change amount of each gradient was 15%. The gradient endpoint was determined in the dm/dt manner, with dm/dt less than 0.002% and maintained for 10 minutes as the gradient endpoint, or the maximum maintenance time of each gradient was 60 min. After the test was completed, XRPD analysis was performed on the sample to confirm whether the solid form changed.

[4] = Stability study of crystal forms (XRPD characterization); settings: high temperature (60° C.), high humidity (25° C./92.5% RH), illumination (25° C./4500 Lux), accelerated (40° C./75% RH); up to 15 days
Method: Stability studies under conditions of high temperature (60° C.), high humidity (25° C./92.5% RH), illumination (25° C./4500 Lux), and accelerated condition (40° C./75% RH) were performed on the crystal forms of the compound of formula (I). Samples were taken for XRPD characterization on the 7th and 15th days respectively.
The crystal form G was stored at room temperature for 1 day.

[5] = Dynamic solubility test in biological media and water; settings: for solubility at 0.5 h / solubility at 2 h / solubility at 24 h: thermodynamic from solid
Excerpt: Wherein, FaSSIF could be used to simulate the intestinal fluid in the small intestine in the human pre-prandial hunger state; FeSSIF could be used to simulate the intestinal fluid in the small intestine in the human post-prandial satiety state; FaSSGF could be used to simulate the stomach in the empty stomach in the human hunger state.

[6] = Description of crystal form A: hygroscopicity and solubility in solvents
[7] = monocitrate vs dicitrate, Table 11

CN1CCN(C2CCN(c3ccc(Nc4ncc5sc(C(=O)N(C)C)c(C6CCCC6)c5n4)nc3)CC2)CC1 [Dicitrate salt]
Solution state [1]: clear | solubility [1]: > 33000 µg/mL | Weight gain at 95% humidity [2, 7]: 0.64%

CN1CCN(C2CCN(c3ccc(Nc4ncc5sc(C(=O)N(C)C)c(C6CCCC6)c5n4)nc3)CC2)CC1.O=C(O)CC(O)(CC(=O)O)C(=O)O [Monocitrate salt]
Solution state [1]: clear | solubility [1]: > 33000 µg/mL | Weight gain at 95% humidity [2, 7]: 3.45%

CN1CCN(C2CCN(c3ccc(Nc4ncc5sc(C(=O)N(C)C)c(C6CCCC6)c5n4)nc3)CC2)CC1 [crystal form A]
weight increase at 80% RH during the adsorption process [3]: 0.25% | weight increase at 95% RH [3]: 0.64% | XRPD pattern after DVS testing [3]: did not change significantly | crystal form transformation by XRPD [4]: without any crystal form transformation occurring | XRPD of the remaining solid ([5]; FaSSGF): No solid remained | Final pH ([5]; FaSSGF, initial pH 1.6): 2.5 | XRPD of the remaining solid ([5]; FaSSIF): No solid remained | Final pH ([5]; FaSSIF, initial pH 6.5): 4.3 | XRPD of the remaining solid ([5]; FeSSIF): No solid remained | Final pH ([5]; FeSSIF, initial pH 5.0): 4.6 | Final pH ([5]; Water): 3.8 | XRPD of the remaining solid ([5]; Water): No solid remained | solubility at 0.5 h ([5]; fassgf or other biorelevant, FaSSGF, pH 1.6, 0.5 h): > 5470 µg/mL | solubility at 2 h ([5]; fassgf or other biorelevant, FaSSGF, pH 1.6, 2 h): > 5480 µg/mL | solubility at 24 h ([5]; fassgf or other biorelevant, FaSSGF, pH 1.6, 24 h): > 5380 µg/mL | solution state after suspension for 24 h ([5]; four media (FaSSIF, FeSSIF, FaSSGF, water)): still clear | time to dissolve ([5]; suspended in four media (FaSSIF, FeSSIF, FaSSGF, water)): ≤ 0.5 h | solubility at 0.5 h ([5]; FaSSIF, pH 6.5, 0.5 h): > 5150 µg/mL | solubility at 2 h ([5]; FaSSIF, pH 6.5, 2 h): > 5110 µg/mL | solubility at 24 h ([5]; FaSSIF, pH 6.5, 24 h): > 5180 µg/mL | solubility at 0.5 h ([5]; FeSSIF, pH 5.0, 0.5 h): > 5460 µg/mL | solubility at 2 h ([5]; FeSSIF, pH 5.0, 2 h): > 5480 µg/mL | solubility at 24 h ([5]; FeSSIF, pH 5.0, 24 h): > 5470 µg/mL | solubility at 0.5 h ([5]; Water, 0.5 h): > 5540 µg/mL | solubility at 2 h ([5]; Water, 2 h): > 5450 µg/mL | solubility at 24 h ([5]; Water, 24 h): > 5480 µg/mL | hygroscopicity (description) [6]: slightly hygroscopic | solubility (description) ([6]; 0.1 mol/L hydrochloric acid solution): readily soluble | solubility (description) ([6]; Water): readily soluble | solubility (description) ([6]; acetic acid): readily soluble | solubility (description) ([6]; ethanol): nearly insoluble | solubility (description) ([6]; methanol): slightly soluble

CN1CCN(C2CCN(c3ccc(Nc4ncc5sc(C(=O)N(C)C)c(C6CCCC6)c5n4)nc3)CC2)CC1 [crystal form B]
weight increase at 80% RH during the adsorption process [3]: 0.24% | weight increase at 95% RH [3]: 0.69% | XRPD pattern after DVS testing [3]: did not change significantly | crystal form transformation by XRPD [4]: did not undergo crystal form transformation

CN1CCN(C2CCN(c3ccc(Nc4ncc5sc(C(=O)N(C)C)c(C6CCCC6)c5n4)nc3)CC2)CC1 [crystal form C]
weight increase at 80% RH during the adsorption process [3]: 0.42% | weight increase at 95% RH [3]: 3.45% | XRPD pattern after DVS testing [3]: did not change significantly | crystal form transformation by XRPD [4]: did not undergo crystal form transformation

CN1CCN(C2CCN(c3ccc(Nc4ncc5sc(C(=O)N(C)C)c(C6CCCC6)c5n4)nc3)CC2)CC1 [crystal form D]
weight increase at 80% RH during the adsorption process [3]: 0.85% | weight increase at 95% RH [3]: 4.45% | XRPD pattern after DVS testing [3]: did not change significantly | crystal form transformation by XRPD [4]: did not undergo significant crystal form transformation

L-Tartrate
Weight gain at 95% humidity ([2]; Table 9): 8.18%
